Data taken from BindingDB's records for doi:10.1021/jm9705519 (National Institute On Drug Abuse-Intramural Research Program, 1998).

Each compound was assayed against Sigma non-opioid intracellular receptor 1 (Cavia porcellus) (UniProt Q60492) (assay: Binding affinity was evaluated using [3H]pentazocine binding to sigma-1 receptor from guinea pig brain).
Chain of Sigma non-opioid intracellular receptor 1 (Cavia porcellus) (Q60492 whole entry, looked up): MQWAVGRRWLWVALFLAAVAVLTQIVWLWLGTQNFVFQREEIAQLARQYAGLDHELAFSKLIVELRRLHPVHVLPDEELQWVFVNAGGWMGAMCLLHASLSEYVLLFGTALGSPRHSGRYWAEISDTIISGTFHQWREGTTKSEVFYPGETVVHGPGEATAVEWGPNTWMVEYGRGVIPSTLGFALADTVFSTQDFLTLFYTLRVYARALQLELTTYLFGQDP
Work on `C[C@H]1CN(CCCn2c3ccccc3c3ccccc32)C[C@H](C)N1C` yielded an IC50 of 897 nM.
For `CC1CN(CCCn2c3ccccc3c3ccccc32)CC(C)N1CCCN=C=S` (centres undefined) [9-{3-[4-(3-Isothiocyanato-propyl)-3,5-dimethyl-piperazin-1-yl]-propyl}-9H-carbazole], the IC50 was 1830 nM.
Compound `CC1CN(CCCn2c3ccccc3c3ccccc32)CC(C)N1CCN=C=S` (centres undefined) [9-{3-[4-(2-Isothiocyanato-ethyl)-3,5-dimethyl-piperazin-1-yl]-propyl}-9H-carbazole] has an IC50 of 949 nM.
For `CC1CN(CCCn2c3ccccc3c3ccccc32)CC(C)N1CCCCCCN=C=S` (centres undefined) [9-{3-[4-(6-Isothiocyanato-hexyl)-3,5-dimethyl-piperazin-1-yl]-propyl}-9H-carbazole], the IC50 was 707 nM.
